Measured values taken from US9937250B2, “Immunogenic tumor associated stromal cell antigen peptides and methods of their use” (University of Pittsburgh—Of the Commonwealth System of …, priority 2011, dated 2018).

How the values were obtained:
MC38 colon carcinoma = assay: MC38 protection (prophylactic vaccination) model; format: in vivo, HHD mice; details: immunization days -14 and -7, tumor challenge day 0 (FIG. 9B)
Excerpt: FIGS. 9A-9B show a series of graphs illustrating induction of specific/protective CD8^+ T cells reactive against TASA as a consequence of DC/peptide-based vaccination. In FIG. 9A, HHD mice (five animals/cohort) were vaccinated twice (d-14, d-7) subcutaneously with PBS or with isologous DC.IL12 pulsed with PBS or synthetic peptides (Table 6) derived from the indicated TASA. In cases where more than 1 peptide was identified for a given target antigen, an equimolar pool of the indicated peptides (each 10 μM) was pulsed onto DC.IL12 and used for vaccination in the relevant cohort. One week after the second immunization, spleens were harvested and splenic CD8^+ T cells isolated using MACS-beads (Miltenyi). T cells were stimulated in vitro for 48 h using the HLA-A2^+ T2 cell line pulsed with relevant TASA vs. irrelevant HIV-nef190-198 ([…]; ref. 24) peptides. Cell-free supernatants were then recovered and IFN-γ levels by ELISA. Data are reported as mean+/−SD for triplicate ELISA determinations, and are representative of 3 independent experiments performed. *p<0.05 vs. HIV-nef control peptide responses. In FIG. 9B, HHD mice were vaccinated twice (days −14 and −7; right flank) subcutaneously with PBS or with isologous DC.IL12 pulsed with PBS or synthetic TASA peptides as indicated in FIG. 1A. In cases where more than 1 peptide is identified for a given target antigen, an equimolar pool of the indicated peptides (each 10 μM) was pulsed onto DC.IL12 and used for vaccination in the relevant cohort. One week after the booster vaccine (i.e. day zero), animals were challenged subcutaneously on their left flank with 2×10^6 MC38 colon carcinoma cells. Tumor growth was then monitored every 3-4 days through day 24. All data represent mean tumor area (in mm^2)+/−SD determined from 5 mice/cohort, and are representative of three independent experiments performed. *p<0.05 versus DC only on the indicated days.
Vaccine Experiments. For prophylactic experiments, HHD mice were immunized subcutaneously on the right flank with 100 μl PBS or PBS containing 10^6 syngenic DC.IL12 cells that had been untreated or pre-pulsed for 4 h at 37° C. with 10 μM synthetic peptide(s). Immunizations occurred on days −14 and −7, with mice subsequently receiving injections of MC38 (2×10^6) tumor cells in the left flank on d0. In all cases, treatment groups contained 5 mice per cohort. For analysis of tumor cellular composition in repeat experiments, MC38 tumors were isolated by surgical resection 10 days after tumor inoculation and prepared for fluorescence imaging, as described below. […] Mice were then untreated or treated with control, syngenic DC.IL12 or DC.IL12 (10^6 cells injected subcutaneously in the left flank on days 7 and 14) pulsed with synthetic TBVA peptides. In some assays, as indicated, in vivo antibody depletions (on days 6, 13 and 20 post-tumor inoculation to assess early involvement or on days 60 and 67 or 180 and 187 to assess late involvement) of protective CD4^+ T cells or CD8^+ T cells were performed and monitored as previously described (Zhao et al., Mol Ther., 19:805-814, 2011). In all cases, tumor size (area) was monitored every 3-4 days and is reported as mean+/−SD in mm^2.
The DLK1, EphA2, HBB, NG2, NRP1, NRP2, PDGFRβ, PSMA, RGS5, TEM1, VEGFR1 and VEGFR2 antigens were expressed in situ by blood vessel cells in the MC38 colon carcinoma TME (FIG. 14). Protection of HHD mice against a challenge with HLA-A2^neg MC38 tumor cells injected subcutaneously on day zero was assayed with immunization with TBVA-derived peptides on days −14 and −7. […]

B16 melanoma = assay: Therapeutic vaccination of established B16 melanoma (tumor growth, survival); format: in vivo, HHD or C57BL/6 (B6) mice; details: for Survival of B16-bearing HHD mice: followed through 60 days post-tumor inoculation (FIG. 11C); for B16 tumor growth in HHD mice: therapeutic vaccines, HHD mice (FIG. 11B)
Method: FIGS. 11A-11C show a series of graphs illustrating that DC.IL12 vaccines containing TASA-derived peptides are therapeutic against MC38 colon carcinomas and B16 melanomas in HHD mice. In FIG. 11A, HHD mice bearing established day seven subcutaneous MC38 tumors (right flank) were left untreated, or they were vaccinated in the left flank with control DC.IL12 or DC.IL12 pulsed with an equimolar pool (10 μM each) of the following TASA-derived peptides: DLK1326-334, EPhA2883-891, HBB31-39, NRP1869-877, PDGFRβ890-898, RGS55-13 and TEM1691-700. Identical booster vaccines were provided on day 14 post-tumor inoculation. As indicated, two vaccine cohorts were treated with depleting anti-CD4 or anti-CD8 monoclonal antibodies to evaluate the impact of these T cell subsets on therapy outcome. Tumor growth was monitored every 3-4 days through d28. In FIG. 11B, Female HHD or C57BL/6 (B6) mice were inoculated subcutaneously in the right flank with 1×10^5B16 (HLA-A2^neg) tumor cells. […] The mice then received vaccines consisting of isologous control or peptide-pulsed DC.IL12 cells subcutaneously in the left flank on days 10 and 17 (post-tumor inoculation). In cases where more than one peptide was identified for a given target antigen, an equimolar pool of the indicated peptides (each 10 μM) was pulsed onto DC.IL12 and used for vaccination. Tumor size (mean+/−SD) was monitored every 3-4 days through day 34. In FIG. 11A and FIG. 11B, mean tumor area+/−SD is reported for 5 animals/cohort. Data are the representative of those obtained in two independent experiments in each case. *p<0.05 versus DC only on the indicated days. In FIG. 11C, HHD mice bearing subcutaneous B16 melanomas were treated as described in FIG. 11B and followed through day 60 post-tumor inoculation. Data are reported in a Kaplan-Meier plot depicting overall percentage of surviving animals over time. *p<0.02 versus DC only; **p<0.002 versus DC only (with refined p-values for differences between treatment cohorts reported in Table 6). Data are cumulative for three independent experiments performed.
Vaccine Experiments. For prophylactic experiments, HHD mice were immunized subcutaneously on the right flank with 100 μl PBS or PBS containing 10^6 syngenic DC.IL12 cells that had been untreated or pre-pulsed for 4 h at 37° C. with 10 μM synthetic peptide(s). […] For analysis of tumor cellular composition in repeat experiments, MC38 tumors were isolated by surgical resection 10 days after tumor inoculation and prepared for fluorescence imaging, as described below. […] In some assays, as indicated, in vivo antibody depletions (on days 6, 13 and 20 post-tumor inoculation to assess early involvement or on days 60 and 67 or 180 and 187 to assess late involvement) of protective CD4^+ T cells or CD8^+ T cells were performed and monitored as previously described (Zhao et al., Mol Ther., 19:805-814, 2011). In all cases, tumor size (area) was monitored every 3-4 days and is reported as mean+/−SD in mm^2.
To analyze the status and specificity of Tc1 cells, HHD mice rendered free of B16 melanoma after therapeutic vaccination with DLK or RGS5 peptide-based vaccines were sacrificed 60 days after tumor inoculation. Fresh MACS-isolated spleen CD8^+ T cells were then analyzed for reactivity against HLA-A2^+PDGFRβ^+CD31^neg pericytes, HLA-A2^+PDGFRβ^negCD31^+ VEC or HLA-A2^neg tumor cells flow-sorted from day 19 B16 tumors growing progressively in untreated HHD mice. […]

## RGS5: RGS5-derived peptide 5-13 pulsed onto DC or DC.IL12 (LAALPHSCL; listed as Homo sapiens)
MC38 colon carcinoma
  Protection against HLA-A2neg MC38 tumor challenge: effective in preventing HLA-A2^neg MC38 tumor establishment or they resulted in the regression of tumors
B16 melanoma
  Survival of B16-bearing HHD mice: significant survival benefits
  B16 tumor growth in HHD mice: effective in suppressing tumor growth

## TEM1: TEM1-derived peptide 691-700 pulsed onto DC or DC.IL12 (LLVPTCVFLV; listed as Homo sapiens)
MC38 colon carcinoma
  Protection against HLA-A2neg MC38 tumor challenge: effective in preventing HLA-A2^neg MC38 tumor establishment or they resulted in the regression of tumors
B16 melanoma
  Survival of B16-bearing HHD mice: significant survival benefits

## EphA2: EphA2-derived peptide 883-891 pulsed onto DC or DC.IL12 (TLADFDPRV; listed as Homo sapiens)
MC38 colon carcinoma
  Protection against HLA-A2neg MC38 tumor challenge: effective in preventing HLA-A2^neg MC38 tumor establishment or they resulted in the regression of tumors
B16 melanoma
  Survival of B16-bearing HHD mice: significant survival benefits
  B16 tumor growth in HHD mice: effective in suppressing tumor growth
